Results taken from US20230219904A1 (SYNGENTA CROP PROTECTION AG, priority 2020, published 2023).

Legend:
Assay type in all cases: in vivo
Settings in all cases: evaluated after 13 days
[1] = test system: Abutilon theophrasti (ABUTH); test: Pre-emergence herbicidal glasshouse test (Table B1)
Procedure, shortened: (§1)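 Plants were grown in standard soil under controlled glasshouse conditions (24/16° C, 14 hours light, 65% humidity) and treated by spraying at 500 g/h unless otherwise indicated. Percentage damage was evaluated after 13 days and expressed on a five-point scale.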

[2] = test system: Amaranthus retoflexus (AMARE); test: as above
Procedure, shortened: as §1

[3] = test system: Echinochloa crus-galh (ECHCG); test: as above
Procedure, shortened: as §1

[4] = test system: Ipomoea hederacea (IPOHE); test: as above
Procedure, shortened: as §1

[5] = test system: Setaria faberi (SETFA); test: as above
Procedure, shortened: as §1

[6] = test system: Abutilon theophrasti (ABUTH); test: Post-emergence herbicidal glasshouse test (Table B1)
Procedure, shortened: as §1

[7] = test system: Amaranthus retoflexus (AMARE); test: as above
Procedure, shortened: as §1

[8] = test system: Echinochloa crus-galh (ECHCG); test: as above
Procedure, shortened: as §1

[9] = test system: Ipomoea hederacea (IPOHE); test: as above
Procedure, shortened: as §1

[10] = test system: Setaria faberi (SETFA); test: as above
Procedure, shortened: as §1

Compound | PRE Application ABUTH, percentage damage on five-point scale ([1]; applied at 500 g/h) | PRE Application AMARE, percentage damage on five-point scale ([2]; applied at 500 g/h) | PRE Application ECHCG, percentage damage on five-point scale ([3]; applied at 500 g/h) | PRE Application IPOHE, percentage damage on five-point scale ([4]; applied) | PRE Application SETFA, percentage damage on five-point scale ([5]; applied at 500 g/h) | POST Application ABUTH, percentage damage on five-point scale ([6]; applied at 500 g/h) | POST Application AMARE, percentage damage on five-point scale ([7]; applied at 500 g/h) | POST Application ECHCG, percentage damage on five-point scale ([8]; applied at 500 g/h) | POST Application IPOHE, percentage damage on five-point scale ([9]; applied at 500 g/h) | POST Application SETFA, percentage damage on five-point scale ([10]; applied at 500 g/h) | PRE Application ABUTH, percentage damage on five-point scale ([1]; applied at 125 g/ha) | PRE Application AMARE, percentage damage on five-point scale ([2]; applied at 125 g/ha) | PRE Application ECHCG, percentage damage on five-point scale ([3]; applied at 125 g/ha) | PRE Application IPOHE, percentage damage on five-point scale ([4]; applied at 125 g/ha) | PRE Application SETFA, percentage damage on five-point scale ([5]; applied at 125 g/ha) | POST Application ABUTH, percentage damage on five-point scale ([6]; applied at 125 g/ha) | POST Application AMARE, percentage damage on five-point scale ([7]; applied at 125 g/ha) | POST Application ECHCG, percentage damage on five-point scale ([8]; applied at 125 g/ha) | POST Application IPOHE, percentage damage on five-point scale ([9]; applied at 125 g/ha) | POST Application SETFA, percentage damage on five-point scale ([10]; applied at 125 g/ha)
Cn1nnnc1NC(=O)c1ccc(OC(F)(F)F)c(NC(=O)C(C)(C)C)c1Cl [Compound 1.107] | 5 (5=80-100%) | 5 (5=80-100%) | 5 (5=80-100%) | 4 (4=60-79%) | 5 (5=80-100%) | 5 (5=80-100%) | 5 (5=80-100%) | 5 (5=80-100%) | 5 (5=80-100%) | 5 (5=80-100%) | – | – | – | – | – | – | – | – | – | –
Cc1cc(C(=O)Nc2c(OC(F)(F)F)ccc(C(=O)Nc3nnnn3C)c2Cl)no1 [Compound 1.011] | 4 (4=60-79%) | 5 (5=80-100%) | 1 (1=0-19%) | 4 (4=60-79%) | 1 (1=0-19%) | 5 (5=80-100%) | 5 (5=80-100%) | 5 (5=80-100%) | 5 (5=80-100%) | 4 (4=60-79%) | – | – | – | – | – | – | – | – | – | –
Cc1cccnc1C(=O)Nc1c(OC(F)F)ccc(C(=O)Nc2nnnn2C)c1Cl [Compound 1.093] | – | – | – | – | – | – | – | – | – | – | 5 (5=80-100%) | 5 (5=80-100%) | 5 (5=80-100%) | 4 (4=60-79%) | 4 (4=60-79%) | 4 (4=60-79%) | 4 (4=60-79%) | 5 (5=80-100%) | 4 (4=60-79%) | 4 (4=60-79%)
Cc1nnc(NC(=O)c2ccc(OC(F)(F)F)c(NC(=O)C3CC3)c2Cl)o1 [Compound 1.115] | – | – | – | – | – | – | – | – | – | – | 4 (4=60-79%) | 4 (4=60-79%) | 5 (5=80-100%) | 2 (2=20-39%) | 4 (4=60-79%) | 4 (4=60-79%) | 3 (3=40-59%) | 4 (4=60-79%) | 4 (4=60-79%) | 4 (4=60-79%)
Cc1nnc(NC(=O)c2ccc(OC(F)(F)F)c(N(C)C)c2Cl)o1 [Compound 2.001, 2-chloro-3-(dimethylamino)-N-(5-methyl-1,3,4-oxadiazol-2-yl)-4-(trifluoromethoxy)benzamide] | 4 (4=60-79%) | 5 (5=80-100%) | 5 (5=80-100%) | 3 (3=40-59%) | 5 (5=80-100%) | 4 (4=60-79%) | 5 (5=80-100%) | 5 (5=80-100%) | 5 (5=80-100%) | 5 (5=80-100%) | – | – | – | – | – | – | – | – | – | –
COC(C)C(=O)Nc1c(OC(F)(F)F)ccc(C(=O)Nc2nnnn2C)c1Cl (stereo not shown) [Compound 1.063] | – | – | – | – | – | – | – | – | – | – | 5 (5=80-100%) | 5 (5=80-100%) | 5 (5=80-100%) | 5 (5=80-100%) | 5 (5=80-100%) | 5 (5=80-100%) | 5 (5=80-100%) | 5 (5=80-100%) | 4 (4=60-79%) | 5 (5=80-100%)
Cn1nnnc1NC(=O)c1ccc(OC(F)(F)F)c(NC(=O)C2CC2(F)F)c1Cl (stereo not shown) [Compound 1.032] | 5 (5=80-100%) | 5 (5=80-100%) | 5 (5=80-100%) | 3 (3=40-59%) | 5 (5=80-100%) | 5 (5=80-100%) | 5 (5=80-100%) | 5 (5=80-100%) | 5 (5=80-100%) | 5 (5=80-100%) | – | – | – | – | – | – | – | – | – | –
CCn1nnnc1NC(=O)c1ccc(OC(F)(F)F)c(NC(=O)C(F)F)c1Cl [Compound 1.122] | – | – | – | – | – | – | – | – | – | – | 3 (3=40-59%) | 5 (5=80-100%) | 4 (4=60-79%) | 1 (1=0-19%) | 3 (3=40-59%) | 4 (4=60-79%) | 5 (5=80-100%) | 4 (4=60-79%) | 2 (2=20-39%) | 3 (3=40-59%)
COC(C)(C)C(=O)Nc1c(OC(F)(F)F)ccc(C(=O)Nc2nnnn2C)c1Cl [Compound 1.125] | 5 (5=80-100%) | 5 (5=80-100%) | 5 (5=80-100%) | 4 (4=60-79%) | 1 (1=0-19%) | 5 (5=80-100%) | 5 (5=80-100%) | 5 (5=80-100%) | 5 (5=80-100%) | 5 (5=80-100%) | – | – | – | – | – | – | – | – | – | –
CC(=O)Nc1c(OCC(F)(F)F)ccc(C(=O)Nc2nnnn2C)c1Cl [Compound 1.018, 3-acetamido-2-chloro-N-(1-methyltetrazol-5-yl)-4-(2,2,2-trifluoroethoxy)benzamide] | 4 (4=60-79%) | 5 (5=80-100%) | 3 (3=40-59%) | 3 (3=40-59%) | 3 (3=40-59%) | 5 (5=80-100%) | 5 (5=80-100%) | 5 (5=80-100%) | 4 (4=60-79%) | 5 (5=80-100%) | – | – | – | – | – | – | – | – | – | –
